Assay results from ChEMBL document CHEMBL1921801, “Discovery and optimization of 2-phenyloxazole derivatives as diacylglycerol acyltransferase-1 inhibitors” (Bioorg Med Chem Lett, 2011).
In brackets after ≈: the same amount, converted by molar mass. Each block holds one molecule with its values, some of them ahead of it. Activity calls are given as the source filed them. The calls are words filed in the database; no cut-off is given here.

Columns and labels:
[1] = Solubility of the compound; assay type: physicochemical
Rattus norvegicus [2] = experiment: Cmax in diet induced obese Sprague-Dawley rat model at 50 mg/kg, po qd for 3 weeks measured on day 21; assay type: ADME, organism-based; design: dose 50 mg/kg, route oral; settings: in vivo, 504 h
Rattus norvegicus [3] = experiment: Antiobesity activity in diet induced obese Sprague-Dawley rat model assessed as reduction in weight gain at 25 mg/kg, po qd for 3 weeks measured on day 21 relative to vehicle treated control; assay type: functional; design: scale not given: the % may be the effect or the level left
[4] = Volume of distribution in Wistar rat at 5 mg/kg, iv; assay type: ADME, organism-based; design: dose 5 mg/kg, route intravenous; settings: in vivo
[5] = Half life in Wistar rat at 5 mg/kg, iv; assay type: ADME, organism-based; design: dose 5 mg/kg, route intravenous; settings: in vivo
Rattus norvegicus [6] = experiment: Toxicity in diet induced obese Sprague-Dawley rat model assessed as change in brain weight administered orally after 22 days; assay type: organism-based; settings: in vivo, po, 528 h
Rattus norvegicus [7] = experiment: Antiobesity activity in diet induced obese Sprague-Dawley rat model assessed as reduction in total cholesterol level at 50 mg/kg, po qd for 3 weeks measured on day 21; assay type: functional, organism-based; design: dose 50 mg/kg
Salmonella typhimurium = experiment: Mutagenic activity in Salmonella Typhimurium by Ames test; assay type: toxicity, organism-based; settings: salmonella enterica subsp. enterica serovar typhimurium
Rattus norvegicus [8] = experiment: Cmax in Wistar rat at 50 mg/kg, po; assay type: ADME, organism-based; design: dose 50 mg/kg, route oral; settings: in vivo
[9] = Fraction unbound in human serum; assay type: ADME, cell-free
[10] = AUC in Wistar rat at 5 mg/kg, iv; assay type: ADME, organism-based; design: dose 5 mg/kg, route intravenous; settings: plasma
[11] = AUC in Wistar rat at 50 mg/kg, po; assay type: ADME, organism-based; design: dose 50 mg/kg, route oral; settings: plasma
Rattus norvegicus [12] = experiment: Antiobesity activity in diet induced obese Sprague-Dawley rat model assessed as reduction in weight gain at 50 mg/kg, po qd for 3 weeks measured on day 21 relative to vehicle treated control; assay type: functional; design: scale not given: the % may be the effect or the level left
Rattus norvegicus [13] = experiment: Toxicity in diet induced obese Sprague-Dawley rat model assessed as change in liver weight administered orally after 22 days; assay type: organism-based; settings: in vivo, po, 528 h
Rattus norvegicus [14] = experiment: Antiobesity activity in diet induced obese Sprague-Dawley rat model assessed as decrease in fat pad mass at 50 mg/kg, po qd for 3 weeks measured on day 21 relative to vehicle treated control; assay type: functional, organism-based; design: dose 50 mg/kg
Rattus norvegicus [15] = experiment: Toxicity in diet induced obese Sprague-Dawley rat model assessed as change in liver enzyme activity administered orally after 22 days; assay type: organism-based; settings: in vivo, po, 528 h
Cavia porcellus = organism: Cavia porcellus; experiment: Cardiotoxicity in guinea pig Langendorff heart model assessed as QT prolongation at >= 0.47 uM; assay type: toxicity
[16] = Genotoxicity in micronucleus by micronucleus assay
[17] = Solubility of the compound in simulated gastric fluid; assay type: physicochemical
Rattus norvegicus [18] = experiment: Antiobesity activity in po dosed diet induced obese Sprague-Dawley rat model assessed as reduction in plasma triglycerides level administered qd for 3 weeks measured on day 21; assay type: functional, organism-based
Rattus norvegicus [19] = experiment: Antiobesity activity in diet induced obese Sprague-Dawley rat model assessed as decrease in lean muscle at 50 mg/kg, po qd for 3 weeks measured on day 21 relative to vehicle treated control; assay type: functional, organism-based; design: dose 50 mg/kg
[20] = molecular target: T1, Diacylglycerol O-acyltransferase 1 (Rattus norvegicus, UniProt Q9ERM3); experiment: Inhibition of rat DGAT1
T1 sequence (Q9ERM3 whole entry): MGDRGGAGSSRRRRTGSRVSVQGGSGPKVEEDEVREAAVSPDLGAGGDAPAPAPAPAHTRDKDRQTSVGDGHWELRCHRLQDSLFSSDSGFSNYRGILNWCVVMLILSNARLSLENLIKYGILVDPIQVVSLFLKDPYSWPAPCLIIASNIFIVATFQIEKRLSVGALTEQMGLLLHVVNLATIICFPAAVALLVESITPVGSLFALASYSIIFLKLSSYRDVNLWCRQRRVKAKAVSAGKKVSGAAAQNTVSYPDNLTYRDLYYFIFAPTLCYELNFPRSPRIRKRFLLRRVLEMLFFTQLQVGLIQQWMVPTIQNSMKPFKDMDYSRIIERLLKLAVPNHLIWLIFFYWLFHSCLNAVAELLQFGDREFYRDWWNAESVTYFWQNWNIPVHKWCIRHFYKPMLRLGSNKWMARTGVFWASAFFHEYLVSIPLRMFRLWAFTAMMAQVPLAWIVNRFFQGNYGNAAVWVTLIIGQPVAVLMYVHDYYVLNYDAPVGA

Rattus norvegicus [21] = experiment: Antiobesity activity in po dosed diet induced obese Sprague-Dawley rat model assessed as reduction in weight gain administered qd for 3 weeks relative to vehicle treated control; assay type: functional, organism-based
Rattus norvegicus [22] = experiment: Antiobesity activity in diet induced obese Sprague-Dawley rat model assessed as reduction in plasma triglycerides level at 50 mg/kg, po qd for 3 weeks measured on day 21 relative to vehicle treated control; assay type: functional; design: scale not given: the % may be the effect or the level left
[23] = Tmax in Wistar rat at 50 mg/kg, po; assay type: ADME, organism-based; design: dose 50 mg/kg, route oral; settings: in vivo
Rattus norvegicus [24] = experiment: Antiobesity activity in diet induced obese Sprague-Dawley rat model assessed as reduction in plasma free fatty acid level at 50 mg/kg, po qd for 3 weeks measured on day 21; assay type: functional, organism-based; design: dose 50 mg/kg
[25] = Kinetic solubility of the compound in phosphate buffered saline at pH 6.5; assay type: physicochemical; settings: read-out: Kinetic_solubility
Rattus norvegicus [26] = experiment: Toxicity in diet induced obese Sprague-Dawley rat model assessed as change in kidney weight administered orally after 22 days; assay type: organism-based; settings: in vivo, po, 528 h
[27] = Cmax in diet induced obese Sprague-Dawley rat model at 25 mg/kg, po qd for 3 weeks measured on day 21; assay type: ADME, organism-based; design: dose 25 mg/kg, route oral; settings: in vivo
Rattus norvegicus [28] = experiment: Toxicity in diet induced obese Sprague-Dawley rat model assessed as change in heart weight administered orally after 22 days; assay type: organism-based; settings: in vivo, po, 528 h
[29] = Cmax in diet induced obese Sprague-Dawley rat model at 5 mg/kg, po qd for 3 weeks measured on day 21; assay type: ADME, organism-based; design: dose 5 mg/kg, route oral; settings: in vivo
[30] = Oral bioavailability in Wistar rat at 50 mg/kg; assay type: ADME, organism-based; settings: in vivo

solubility [1]: Insoluble
SMILES: CCCn1[nH]c(=O)c2cc(NC(=O)c3nc(-c4ccccc4)oc3C(F)(F)F)ccc21

Cmax (Rattus norvegicus [2]): 12.2 µM
Vd [4]: 1.6 L/kg
half-life [5]: 1.95 h
Cmax (Rattus norvegicus [8]): 10200 ng/mL
fraction unbound [9]: 0.015
AUC [10]: 6160 ng·h/mL
AUC [11]: 47200 ng·h/mL
solubility [17]: 770 µg/mL (≈ 1830 µM)
IC50 [20]: 120 nM
Tmax [23]: 1 h
solubility kinetic [25]: 1 µg/mL (≈ 2.38 µM)
Cmax [27]: 7.8 µM
Cmax [29]: 2.6 µM
bioavailability [30]: 77%
SMILES: COCCN(C)c1ccc(NC(=O)c2nc(-c3ccccc3)oc2C(F)(F)F)cn1
Activity (Rattus norvegicus [3]): 4%
Activity (Rattus norvegicus [6]): Non-toxic
Activity (Rattus norvegicus [7]): Active
Activity (Salmonella typhimurium): Non-toxic
Activity (Rattus norvegicus [12]): 8%
Activity (Rattus norvegicus [13]): Non-toxic
Activity (Rattus norvegicus [14]): Active
Activity (Rattus norvegicus [15]): Non-toxic
Activity (Cavia porcellus): Toxic
Activity [16]: Non-toxic
Activity (Rattus norvegicus [18]): Dose-dependent effect
Activity (Rattus norvegicus [19]): inactive
Activity (Rattus norvegicus [21]): Dose-dependent effect
Activity (Rattus norvegicus [22]): 64%
Activity (Rattus norvegicus [24]): Active
Activity (Rattus norvegicus [26]): Non-toxic
Activity (Rattus norvegicus [28]): Non-toxic
